US20250214977A1, “STAT6 INHIBITORS AND USES THEREOF” (Kymera Therapeutics, Inc., priority 2024, published 2025)

System: Phosphorylation of STAT6 in human A549 cells
Assay: Phosphorylated STAT6 (pSTAT6) flow cytometry assay in human A549 cells
Format: cell-based
Conditions: read-out: STAT6 IL4 pSTAT6 assay in A549 cells: Average IC50
Description: Example 3. Phosphorylated STAT6 (pSTAT6) Flow Cytometry Assay in Human A549 Cells
Phosphorylation of STAT6 in human A549 cells was quantitatively measured using flow cytometry technology.

IC50 | SMILES
< 100 nM | CCCOc1ncc(C)cc1-c1cc(C2=CCCN(C(=O)CCn3ccnn3)C2)c(F)c2[nH]c(C(=O)N3CCN(c4ncc(F)cc4OC)CC3)cc12 [Example I-654]
< 100 nM | COc1ccncc1-c1cc(C2=CCCN(C(=O)CCn3ccnn3)C2)c(F)c2[nH]c(C(=O)N3CCN(c4ccc(C#N)cc4OC)CC3)cc12 [Example I-474]
< 100 nM | COc1ccncc1-c1cc(C2=CCCN(C(=O)CCn3ccnn3)C2)c(F)c2[nH]c(C(=O)N3CCN(c4nccnc4OC)CC3)cc12 [Example I-441]
< 100 nM | COc1ccccc1-c1cc(C2=CCCN(C(=O)CCn3ccnn3)C2)c(F)c2[nH]c(C(=O)N3CCN(c4cncn4C)CC3)cc12 [Example I-1026]
< 100 nM | COc1cccnc1N1CCN(C(=O)c2cc3c(-c4ccccc4OC(F)(F)F)cc(C4=CCCN(C(=O)CCn5ccnn5)C4)c(F)c3[nH]2)CC1 [Example I-558]
10000 to 100000 nM | COc1ccccc1-c1cc(C(=O)N2CCN(c3ncc(F)cc3OC)CC2)cc2cc(C3=CCCN(C(=O)CCn4ccnn4)C3)n(CC3CC3)c12 [Example I-506]
< 100 nM | COc1ccccc1-c1cc(C2=CCCN(C(=O)CCn3ccnn3)C2)c(F)c2[nH]c(C(=O)N3CCN(c4cnn5ccncc45)CC3)cc12 [Example I-1015]
< 100 nM | COCOc1ccc(-c2cc(C3=CCCN(C(=O)CCn4ccnn4)C3)c(F)c3[nH]c(C(=O)N4CCN(c5ncc(F)cc5OC)CC4)cc23)cc1 [Example I-1147]
< 100 nM | COc1cnccc1-c1cc(C2=CCCN(C(=O)CCn3ccnn3)C2)cc2cc(C(=O)N(C)C)oc12 [Example I-1067]
< 100 nM | CCc1ccccc1-c1cc(C2=CCCN(C(=O)CCn3ccnn3)C2)c(F)c2[nH]c(C(=O)N3CCN(c4ncccc4OC)CC3)cc12 [Example I-562]
100 to 1000 nM | COc1ccccc1-c1cc(C2=CCCN(C(=O)CCn3ccnn3)C2)c(F)c2[nH]c(C(=O)N3CCN(c4ccc(OC)c(OC)c4OC)CC3)cc12 [Example I-922]
< 100 nM | COc1cnccc1-c1cc(C2=CCCN(C(=O)CCn3ccnn3)C2)cc2[nH]c(C(=O)N(C)C)cc12 [Example I-1060]
100 to 1000 nM | COc1cc(F)cnc1N1CCN(C(=O)c2cc3c(C4=CCC5(CC4)CC5)cc(C4=CCCN(C(=O)CCn5ccnn5)C4)c(F)c3[nH]2)CC1 [Example I-1159]
< 100 nM | COc1cc(F)cnc1N1CCN(C(=O)c2cc3c(-c4cncc(-c5ccccc5)c4)cc(C4=CCCN(C(=O)CCn5ccnn5)C4)c(F)c3[nH]2)CC1 [Example I-647]
< 100 nM | COc1cc(F)cnc1N1CCN(C(=O)c2cc3c(-c4ccc(CN5CCOCC5)cc4)cc(C4=CCCN(C(=O)CCn5ccnn5)C4)c(F)c3[nH]2)CC1 [Example I-1122]
< 100 nM | CC(=O)N1CCC=C(c2cc(-c3cccc4c3OCCO4)c3cc(C(=O)N(C)C)[nH]c3c2F)C1 [Example I-1095]
< 100 nM | COc1ccccc1-c1cc(C2=CCCN(C(=O)CCn3ccnn3)C2)c(F)c2[nH]c(C(=O)N3CCN(Cc4nc(C)cs4)CC3)cc12 [Example I-1185]
< 100 nM | COCCCOc1ccc(-c2cc(C3=CCCN(C(=O)CCn4ccnn4)C3)c(F)c3[nH]c(C(=O)N4CCN(c5ncc(F)cc5OC)CC4)cc23)cc1 [Example I-1112]
< 100 nM | COc1cc(F)cnc1N1CCN(C(=O)c2cc3c(C4=CC(=O)CC4)cc(C4=CCCN(C(=O)CCn5ccnn5)C4)c(F)c3[nH]2)CC1 [Example I-1116]

IC50 | SMILES
< 100 nM | COc1ccncc1-c1cc(C2=CCCN(C(=O)CCn3ccnn3)C2)c(F)c2[nH]c(C(=O)N(C)C)cc12 [Example I-1065]
100 to 1000 nM | C#Cc1cc(C2=CCCN(C(=O)CCn3ccnn3)C2)cc2cc(C(=O)N(C)C)oc12 [Example I-373, 5-(1-(3-(1H-1,2,3-triazol-1-yl)propanoyl)-1,2,5,6-tetrahydropyridin-3-yl)-7-ethynyl-N,N-dimethylbenzofuran-2-carboxamide]
< 100 nM | COc1ccccc1-c1cc(C2=CCCN(C(=O)CCn3ccnn3)C2)c(F)c2[nH]c(C(=O)N3CCN(c4ccnn4C)CC3)cc12 [Example I-1025]
< 100 nM | COc1ccccc1-c1cc(C(=O)N2CCN(c3ncc(F)cc3OC)CC2)cc2cc(C3=CCCN(C(=O)CCn4ccnn4)C3)n(CC(C)C)c12 [Example I-521]
< 100 nM | COc1ccc(-c2cc(C3=CCCN(C(=O)CCn4ccnn4)C3)c(F)c3[nH]c(C(=O)N4CCN(c5ncc(F)cc5OC)CC4)cc23)c(C2CC2)c1 [Example I-641]
< 100 nM | COc1ccccc1-c1cc(C2=CCCN(C(=O)CCn3ccnn3)C2)c(F)c2[nH]c(C(=O)N3CC(Oc4ccc(F)cc4)C3)cc12 [Example I-999]
< 100 nM | Cc1cc(F)ccc1-c1cc(C2=CCCN(C(=O)CCn3ccnn3)C2)cc2cc(C(=O)N(C)C)oc12 [Example I-1083]
100 to 1000 nM | CN(C)C(=O)c1cc2cc(C3=CCCN(C(=O)C(Cn4ccnn4)c4cccc(C#N)c4)C3)ccc2o1 (centres unmarked) [Example I-835]
< 100 nM | CNc1ccc(-c2cc(C3=CCCN(C(=O)CCn4ccnn4)C3)cc3[nH]c(C(=O)N(C)C)cc23)c(C)c1 [Example I-1053]
< 100 nM | CCc1ccncc1-c1cc(C2=CCCN(C(=O)CCn3ccnn3)C2)c(F)c2[nH]c(C(=O)N3CCN(c4ncc(C(F)(F)F)cc4OC)CC3)cc12 [Example I-1040]
< 100 nM | COc1ccc(Cl)c(-c2cc(C3=CCCN(C(=O)CCn4ccnn4)C3)cc3[nH]c(C(=O)N(C)C)cc23)c1 [Example I-1062]
< 100 nM | Cc1cc(C)c(-c2cc(C3=CCCN(C(=O)CCn4ccnn4)C3)cc3cc(C(=O)N(C)C)oc23)cc1C [Example I-856]
< 100 nM | COc1ccccc1-c1cc(C2=CCCN(C(=O)CCn3ccnn3)C2)c(F)c2[nH]c(C(=O)N3Cc4ncn(C)c4C3)cc12 [Example I-541]
1000 to 10000 nM | COc1ccccc1-c1cc(C2=CCCN(C(C)=O)C2)c(F)c2sc(C(=O)N3CCN(c4ncccc4OC)CC3)cc12 [Example I-1106]
< 100 nM | COc1ccccc1-c1cc(C2=CCCN(C(=O)CCn3ccnn3)C2)c(F)c2[nH]c(C(=O)N3CCN(c4ncc(Cl)cc4OC)CC3)cc12 [Example I-369]
< 100 nM | COc1ccccc1-c1cc(C2=CCCN(C(=O)CCn3ccnn3)C2)c(F)c2[nH]c(C(=O)N3CCN(c4ccccc4C)CC3)cc12 [Example I-421]
< 100 nM | COc1ncccc1-c1cc(C2=CCCN(C(=O)CCn3ccnn3)C2)cc2cc(C(=O)N(C)C)oc12 [Example I-1082]
< 100 nM | COc1cc(F)cnc1N1CCN(C(=O)c2cc3c(C4=CCN(Cc5ccccc5)CC4)cc(C4=CCCN(C(=O)CCn5ccnn5)C4)c(F)c3[nH]2)CC1 [Example I-1132]
< 100 nM | COc1ccccc1-c1cc(C2=CCCN(C(=O)CCn3ccnn3)C2)c(F)c2[nH]c(C(=O)N3CCN(c4c(OC)cccc4OC)CC3)cc12 [Example I-350]

IC50 | SMILES
< 100 nM | COc1ccccc1-c1cc(C2=CCCN(C(=O)CCn3ccnn3)C2)c(F)c2[nH]c(C(=O)N3CCN(c4ncccn4)C[C@@H]3C)cc12 [Example I-995]
< 100 nM | COc1cnccc1-c1cc(C2=CCCN(C(=O)CCn3ccnn3)C2)c(F)c2[nH]c(C(=O)N3CCN(c4ncccc4OC)CC3)cc12 [Example I-366]
100 to 1000 nM | CN(C)C(=O)c1cc2cc(C3=CCCN(C(=O)CCc4cccnn4)C3)ccc2o1 [Example I-820]
< 100 nM | CCn1ncc2c1CN(C(=O)c1cc(C3=CCCCC3)c3c(c1)cc(C1=CCCN(C(=O)CCn4ccnn4)C1)n3CC1CC1)C2 [Example I-765]
1000 to 10000 nM | COc1ccccc1-c1cc(C2=CCCN(C(=O)CCn3ccnn3)C2)c(F)c2[nH]c(C(=O)N3CC4CCN(Cc5ccccc5)C4C3)cc12 (centres unmarked) [Example I-987]
< 100 nM | COc1ccccc1-c1cc(C2=CCCN(C(=O)CCn3ccnn3)C2)c(F)c2[nH]c(C(=O)N3CCN(CC(=O)NC(C)C)CC3)cc12 [Example I-1200]
10000 to 100000 nM | CCc1cc(C)ncc1-c1cc(C2=CCCN(C(=O)CCn3ccnn3)C2)c(F)c2[nH]c(C(=O)N3CCN(c4ncc(F)cc4OC)CC3)cc12 [Example I-707]
< 100 nM | COC(=O)c1cc(N2CCN(C(=O)c3cc4c(-c5ccccc5OC)cc(C5=CCCN(C(=O)CCn6ccnn6)C5)c(F)c4[nH]3)CC2)cn1C [Example I-1004]
100 to 1000 nM | COc1ccccc1-c1cc(C2=CCCN(C(=O)C(C)C)C2)c(F)c2cc(C(=O)N(C)C)oc12 [Example I-1190]
10000 to 100000 nM | COc1ccccc1-c1cc(C2=CCCN(C(=O)C3Cc4ccccc4CN3C=O)C2)cc2cc(C(=O)N(C)C)oc12 (centres unmarked) [Example I-803, 5-(1-(2-formyl-1,2,3,4-tetrahydroisoquinoline-3-carbonyl)-1,2,5,6-tetrahydropyridin-3-yl)-7-(2-methoxyphenyl)-N,N-dimethylbenzofuran-2-carboxamide]
< 100 nM | CCn1c(N2CCN(C(=O)c3cc4c(-c5ccccc5OC)cc(C5=CCCN(C(=O)CCn6ccnn6)C5)c(F)c4[nH]3)CC2)nc2ccccc21 [Example I-942]
> 100000 nM | CCCc1cc(C2=CCCN(C(=O)CCn3ccnn3)C2)c(F)c2[nH]c(C(=O)N3CCN(c4ncc(F)cc4OC)CC3)cc12 [Example I-693]
< 100 nM | COc1ccccc1-c1cc(C2=CCCN(C(=O)CCn3ccnn3)C2)c(F)c2[nH]c(C(=O)N3CCN(c4ccnnc4O)CC3)cc12 [Example I-908]
< 100 nM | COc1ccccc1-c1cc(C2=CCCN(C(=O)CCn3ccnn3)C2)c(F)c2[nH]c(C(=O)N3CCN(c4nccc5ccncc45)CC3)cc12 [Example I-355]
100 to 1000 nM | CN(C)C(=O)c1cc2ccc(C3=CCCN(C(=O)CCn4ccnn4)C3)cc2s1 [Example I-816]
< 100 nM | COc1ccccc1-c1cc(C2=CCCN(C(=O)CCn3ccnn3)C2)c(F)c2[nH]c(C(=O)N3CCN(c4cn(C)c5ncncc45)CC3)cc12 [Example I-1016]
< 100 nM | COc1cccnc1N1CCN(C(=O)c2cc3c(-c4ccc5ncccc5c4OC)cc(C4=CCCN(C(=O)CCn5ccnn5)C4)c(F)c3[nH]2)CC1 [Example I-577]
< 100 nM | CNc1ccc(-c2cc(C3=CCCN(C(=O)C4Cc5ccccc5CN4C=O)C3)cc3[nH]c(C(=O)N(C)C)cc23)cc1 (centres unmarked) [Example I-551]
